“Also recorded” adds a separate entry of the source. Like-named read-outs stand apart in the source and are kept apart here.
Columns and labels:
[1] = system: mammalian retroviruses; conditions: millimolar concentrations; cited from earlier work
[2] = system: Mammalian rotaviruses; conditions: millimolar concentrations; cited from earlier work
[3] = system: Arabidopsis thaliana; conditions: cited from earlier work
[4] = system: SV40 transformed BALB-3T3 cells; conditions: cited from earlier work
[5] = system: tomato spotted wilt virus; conditions: tomato and tobacco plants; cited from earlier work
[6] = molecular target: T1, recombinant MPS-1 (CCCC zinc finger) (Homo sapiens, UniProt P42677); assay: Gel shift assay and radioactive Zn65 removal from recombinant MPS-1; type: biochemical
T1 construct: made in house
From the text: MPS-1 is a ubiquitous tumor marker and cell growth stimulator and is described in detail in the inventors' U.S. Pat. No. 5,243,041. MPS-1 has one zinc finger domain of the type CCCC. […] This is detected by a change in the electrophoretic mobility of MPS-1 under non-denaturing conditions. These experiments indicate that picolinic acid and derivatives should remove zinc and denature various types of zinc finger, zinc ring proteins, or other types of ZF motifs whether known or heretofore undiscovered, including animal or plant viral proteins such as nucleocapsid proteins of retrovirus or the nucleocapsid proteins of Geminivirus. Furthermore, the inventors have determined that any chemical compound, whether known or heretofore undiscovered, that will remove the zinc (or other metal) and denature the proteins or that will form a ternary complex (protein-zinc-chelator) can be effective as an antiviral agent, with nontoxic effects, provided that the agent conforms with certain specific structural requirements.

[7] = system: HIV-1, Hepatitis C and numerous other viruses as well as the host cells; assay: Fate of virus-infected host cells after treatment; type: cell-based
From the text: APOPTOSIS. Apoptosis is a morphological pattern of cell injury and an important mode of cell death (Robbins, Pathological Basis of Disease, 1999, 6th Ed). Apoptosis shares and overlaps common mechanisms with necrosis. […] This form of cell death is designed to eliminate defective, unwanted and damaged cells. For example, the inventors have shown that cells infected by Herpes Simplex Virus 1 (HSV; labialis) and HSV-2 genitalis are destroyed together with the host cells that they infected by apoptosis when exposed to pyridine carboxylates (Fernandez-Pol, Anticancer Res. 2002). […] Thus, the inventors believes that when host cells of animals or plants are infected by pathogenic viruses, unless the treatment is extremely quickly, the host cells and the virus will be destroyed. In fact, host cells defective, mutated, and reservoirs for the novo synthesis of viruses are unwanted host cells and must be eliminated in many instances to allow the survival of the organism.

[8] = system: Orobanche ramosa; conditions: Arabidopsis thaliana pre-treated with FU; cited from earlier work
[9] = system: HSV-1; conditions: tissue culture and animals; cited from earlier work
[10] = system: HSV-2; conditions: tissue culture and animals; cited from earlier work
[11] = system: Arabidopsis thaliana; conditions: in vivo; cited from earlier work
[12] = system: Common ornamental plant cells infected by viruses; assay: Treatment of virus-infected ornamental plants; conditions: viral strains not determined
[13] = system: virally-transformed cells; conditions: cited from earlier work
[14] = system: NRK cells; conditions: cells treated with picolinic acid; cited from earlier work
[15] = system: marker defense genes PR-1, PR-2 and PDF1.2; conditions: dose-dependent and time dependent; cited from earlier work
[16] = system: rice; conditions: in vivo; cited from earlier work
[17] = system: cells (iron incorporation); conditions: cited from earlier work
[18] = system: normal cells (NRK, BALB 3T3); conditions: cited from earlier work

## O=C(O)CN(CCN(CC(=O)O)CC(=O)O)CC(=O)O [EDTA]
[1]
  disintegration of viral membranes (release of reverse transcriptase): partial disintegration of viral membranes
[2]
  disintegration of viral membranes and release of Zinc Finger Proteins: partial disintegration of the viral membranes

## O=C(O)CN(CCOCCOCCN(CC(=O)O)CC(=O)O)CC(=O)O [EGTA]
[1]
  disintegration of viral membranes (release of reverse transcriptase): partial disintegration of viral membranes
[2]
  disintegration of viral membranes and release of Zinc Finger Proteins: partial disintegration of the viral membranes

## COS(C)(=O)=O [MMS, Methyl Methane Sulphonate]
[3]; ars27A mutant, 3 weeks
  growth and size of the plant: strongly inhibited
[3]; wild type, same concentrations
  growth and size of the plant: not affecting

## NC(=O)c1cccnc1 [Nicotinamide, reference compound]
[4]; at 48 h
  effect on cell growth or apoptosis: no effect

## NC(=O)c1ncn([C@@H]2O[C@H](CO)[C@@H](O)[C@H]2O)n1 [Virazole (Ribavirin)]
[5]
  use against tomato spotted wilt virus: successfully used

## CCCCc1ccc(C(=O)O)nc1 [fusaric acid, 5-butyl picolinic acid]
[6]
  removal of zinc (radioactive Zn65) from CCCC zinc finger of MPS-1: remove radioactive Zn65 from MPS-1; also recorded: remove zinc
  zinc dependent binding of recombinant MPS-1 to DNA (gel shift assays): inhibit the zinc dependent binding of recombinant MPS-1 to DNA
[7]
  fate of viruses and host cells after treatment: Death by apoptosis
[8]
  germination of the angiosperm parasite: inhibited
[9]
  efficacy against viral infection by HSV-1: effective
[10]
  efficacy against viral infection by HSV-2: effective
[11]
  concentration eliciting plant defense responses without toxic effects: 100 nM
  concentrations that reduced root growth and induced membrane hyperpolarization/depolarization: > 500 µM
[12]
  outcome of treatment of virus-infected ornamental plants: positive results

## O=C(O)c1ccccn1 [picolinic acid, 2-pyridine carboxylic acid]
[6]
  removal of zinc (radioactive Zn65) from CCCC zinc finger of MPS-1: remove radioactive Zn65 from MPS-1; also recorded: remove zinc
  zinc dependent binding of recombinant MPS-1 to DNA (gel shift assays): inhibit the zinc dependent binding of recombinant MPS-1 to DNA
[7]
  fate of viruses and host cells after treatment: Death by apoptosis
[4]; 3 mM picolinic acid
  mitochondrial cytochrome c release: released cytochrome c
[13]; Kirsten sarcoma virus transformed cells
  cell cycle arrest, Flow Microfluorometric Analysis of DNA: G1 phase
[13]; longer exposure/further incubation
  cytotoxicity in transformed cells: cytotoxicity and cell death was observed in all transformed cells; also recorded: cell death by apoptosis was observed in all transformed cells
[14]
  potency of prostaglandin E1 in elevating cyclic AMP: two to five times more potent
[15]
  induction of marker defense genes PR-1, PR-2 and PDF1.2: all induced
[16]
  hypersensitive response (HR): elicit the hypersensitive response (HR)
[17]
  incorporation of iron into the cells: inhibits incorporation of iron into the cells
  removal of radioiron from the cells: effectively removes radioiron from the cells
[18]
  toxicity to normal cells: no toxic effects
[12]
  outcome of treatment of virus-infected ornamental plants: positive results
